Holding throughout (type): cell-based
Experiment [1] addresses T1, P2X7 receptor (Mus musculus, UniProt Q9Z1M0).
T1 construct: mP2X7 (IC50; nM); other: mP2X7; HEK-293 cells stably transfected with P2X7 receptor, Bz-ATP at EC80, Fluo-8 NW; potency
T1 sequence (Q9Z1M0 1-595): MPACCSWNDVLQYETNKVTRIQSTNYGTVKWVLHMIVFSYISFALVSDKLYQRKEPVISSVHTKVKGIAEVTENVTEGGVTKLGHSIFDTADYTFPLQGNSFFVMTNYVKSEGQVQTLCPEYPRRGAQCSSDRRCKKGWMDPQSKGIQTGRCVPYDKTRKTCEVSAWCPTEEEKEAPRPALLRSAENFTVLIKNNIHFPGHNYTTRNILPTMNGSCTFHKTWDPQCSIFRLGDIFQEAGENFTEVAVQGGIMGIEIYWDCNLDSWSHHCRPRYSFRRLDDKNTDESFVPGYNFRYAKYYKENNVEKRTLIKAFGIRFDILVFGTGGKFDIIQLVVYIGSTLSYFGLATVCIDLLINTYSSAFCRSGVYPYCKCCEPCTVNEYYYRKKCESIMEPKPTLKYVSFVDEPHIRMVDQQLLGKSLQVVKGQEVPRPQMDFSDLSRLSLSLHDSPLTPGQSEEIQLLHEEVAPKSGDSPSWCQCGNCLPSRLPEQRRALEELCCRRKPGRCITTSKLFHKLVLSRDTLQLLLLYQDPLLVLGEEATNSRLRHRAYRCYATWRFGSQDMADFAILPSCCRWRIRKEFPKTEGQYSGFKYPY
The experiment is described as follows: Screen Quest Fluo-8 No Wash Calcium Assay (Bz-ATP evoked Ca2+ influx, FLIPR). The settings on record: mP2X7; HEK-293 cells stably transfected with P2X7 receptor, Bz-ATP at EC80, Fluo-8 NW; potency ranges A-D. In short, it runs like this: (§1)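 Compounds were added to Fluo-8-loaded P2X7-transfected HEK-293 cells 5 min before an EC80 Bz-ATP challenge, and Ca2+ influx was then recorded for 3 min. Buffer held 0.3 mM Ca2+ and no Mg2+. Inhibition was normalised to A438079, giving IC50 values.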

Experiment [2] has as its target T2, P2X7 receptor (Rattus norvegicus, UniProt Q64663).
T2 construct: rP2X7 (IC50; nM); other: rP2X7; HEK-293 cells stably transfected with P2X7 receptor, Bz-ATP at EC80, Fluo-8 NW; potency
T2 sequence (Q64663 1-595): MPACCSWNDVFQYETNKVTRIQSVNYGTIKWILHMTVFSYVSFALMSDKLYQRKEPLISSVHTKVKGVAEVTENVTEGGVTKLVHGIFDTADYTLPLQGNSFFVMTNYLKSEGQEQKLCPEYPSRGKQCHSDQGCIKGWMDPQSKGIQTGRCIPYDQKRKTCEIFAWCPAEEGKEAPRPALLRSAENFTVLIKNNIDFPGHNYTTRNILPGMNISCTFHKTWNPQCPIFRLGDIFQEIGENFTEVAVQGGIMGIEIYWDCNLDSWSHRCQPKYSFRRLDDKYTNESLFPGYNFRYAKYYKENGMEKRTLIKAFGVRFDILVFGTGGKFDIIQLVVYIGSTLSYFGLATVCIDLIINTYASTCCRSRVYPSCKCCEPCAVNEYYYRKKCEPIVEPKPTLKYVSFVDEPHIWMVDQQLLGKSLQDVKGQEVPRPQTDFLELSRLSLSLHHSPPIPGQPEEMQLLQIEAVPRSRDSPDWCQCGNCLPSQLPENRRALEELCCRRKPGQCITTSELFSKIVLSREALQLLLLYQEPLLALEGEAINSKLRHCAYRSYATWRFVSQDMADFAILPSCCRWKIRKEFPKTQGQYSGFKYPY
Described as above. The settings on record: rP2X7; HEK-293 cells stably transfected with P2X7 receptor, Bz-ATP at EC80, Fluo-8 NW; potency ranges A-D. In short, it runs like this: as §1

The target in experiment [3] is T3, P2X7 receptor (Homo sapiens, UniProt Q99572).
T3 sequence (Q99572 1-595): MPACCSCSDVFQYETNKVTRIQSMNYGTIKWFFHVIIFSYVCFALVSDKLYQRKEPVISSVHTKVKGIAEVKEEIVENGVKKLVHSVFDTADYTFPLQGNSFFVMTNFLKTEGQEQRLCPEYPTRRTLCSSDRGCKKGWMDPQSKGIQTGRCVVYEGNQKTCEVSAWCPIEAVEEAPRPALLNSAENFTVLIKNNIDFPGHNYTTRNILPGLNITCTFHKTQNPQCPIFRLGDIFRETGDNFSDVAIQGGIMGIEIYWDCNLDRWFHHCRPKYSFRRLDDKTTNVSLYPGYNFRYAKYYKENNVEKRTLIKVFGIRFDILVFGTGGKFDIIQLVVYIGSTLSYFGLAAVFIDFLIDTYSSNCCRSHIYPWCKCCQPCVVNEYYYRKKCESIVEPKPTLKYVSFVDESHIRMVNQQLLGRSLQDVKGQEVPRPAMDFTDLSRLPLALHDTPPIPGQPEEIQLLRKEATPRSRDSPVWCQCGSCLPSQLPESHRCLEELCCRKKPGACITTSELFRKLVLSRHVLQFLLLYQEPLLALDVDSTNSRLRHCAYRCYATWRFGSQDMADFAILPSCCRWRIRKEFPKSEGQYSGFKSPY
The experiment can be described thus: Automated patch-clamp (QPatch16X) P2X7 channel assay. Details: expressed in transfected cells; host or cells: HEK-293. To be noted: HEK-293 cells expressing P2X7 channels; whole-cell, held at -80 mV; 100 microM BzATP; compound 1, 10, 100 and 1000 nM; read-out: Q-Patch (IC50). How it is done:
In order to directly monitor the block of P2X7 channel, an electrophysiological assay was developed and implemented on the QPatch16X automated electrophysiology instrument.
HEK-293 cells expressing the P2X7 channels were cultured in modified EMEM.
72 hours before experiment, 5 million cells were seeded onto T225 flasks. Just before the experiment cells were washed twice, detached from the flask with trypsin-EDTA, re-suspended in the suspension solution and placed on the QPatch 16x.
The compounds (20 mM in a 100% DMSO) stored at −20° C. were prepared the day of the experiment (a first dilution 1:20 in 100% DMSO to prepare a 1 mM stock solution, then a 1 microM solution in external solution+a serial dilution 1:10).
The standard whole-cell voltage clamp experiments were performed at room temperature. From these experiments the multihole technology was used and the data were sampled at 2 KHz.
The intracellular solution contained (mM) 135 CsF, 10 NaCl, 1 EGTA, 10 HEPES, (pH 7.2 with CsOH) whereas the extracellular contained (mM) 145 NaCl, 4 KCl, 0.5 MgCl2, 1 CaCl2, 10 HEPES, 10 Glc (pH 7.4 with NaOH).
After establishment of the seal and the passage in the whole cell configuration, the cells were held at −80 mV. The P2XR7 current was evoked by applying 100 microM of BzATP alone (4 times) and then in the presence increasing concentrations of the compound under investigation (1, 10, 100 and 1000 nM).
The pre-incubation periods 5 to 8 contain increasing concentrations of the compound of interest (1, 10, 100 and 1000 nM), as illustrated in FIGURE (application protocol).
The maximal inward current evoked by BzATP in absence or presence of increasing concentrations of the compounds under investigation was measured and normalized. The potential […] effect was measured as % of control and as IC50 determined fitting the dose-response curves data with the following equation: Y=100/(1+10^((Log IC50−X)*HillSlope))
On the technique in general: Patch clamp records ionic current or voltage across a cell membrane.

For experiment [4], the target named is T3, P2X7 receptor. The experiment is described as follows: Screen Quest Fluo-8 No Wash Calcium Assay (Bz-ATP evoked Ca2+ influx, FLIPR). Details: hP2X7 (IC50; nM); other: hP2X7; HEK-293 cells stably transfected with P2X7 receptor, Bz-ATP at EC80, Fluo-8 NW; potency. To be noted: hP2X7; HEK-293 cells stably transfected with P2X7 receptor, Bz-ATP at EC80, Fluo-8 NW; potency ranges A-D. In short, it runs like this: as §1

As usually defined, the IC50 is the concentration that gives 50% inhibition. With `O=c1onc(Cc2c(F)cccc2Cl)n1Cc1cccc(Cl)c1Cl` [Example 59, 3-[(2-chloro-6-fluorophenyl)methyl]-4-[(2,3-dichlorophenyl)methyl]-4,5-dihydro-1,2,4-oxadiazol-5-one], the IC50 on P2X7 receptor [1] is 200 to 1000 nM; at P2X7 receptor [2], 200 to 1000 nM; on P2X7 receptor [3] it was 355 nM; at P2X7 receptor [4] it was 200 to 1000 nM.

(Values after patent publication US11623919B2, “Heterocyclic P2X7 antagonists” (AXXAM S.P.A., priority 2017, dated 2023).)
